Data: patent US20090048205A1, “COMBINATION THERAPY WITH SYNTHETIC TRITERPENOIDS AND GEMCITABINE” (priority 2007, published 2009)

How the values were obtained:
heme oxygenase-1 (HO-1) = conditions: at nanomolar concentrations; in vitro and in vivo; Liby et al. (2005); cited from earlier work
IKKb = molecular target: T1, IKKb (Homo sapiens, UniProt O14920); conditions: via binding to Cys179; cited from earlier work
T1 sequence (O14920 1-756): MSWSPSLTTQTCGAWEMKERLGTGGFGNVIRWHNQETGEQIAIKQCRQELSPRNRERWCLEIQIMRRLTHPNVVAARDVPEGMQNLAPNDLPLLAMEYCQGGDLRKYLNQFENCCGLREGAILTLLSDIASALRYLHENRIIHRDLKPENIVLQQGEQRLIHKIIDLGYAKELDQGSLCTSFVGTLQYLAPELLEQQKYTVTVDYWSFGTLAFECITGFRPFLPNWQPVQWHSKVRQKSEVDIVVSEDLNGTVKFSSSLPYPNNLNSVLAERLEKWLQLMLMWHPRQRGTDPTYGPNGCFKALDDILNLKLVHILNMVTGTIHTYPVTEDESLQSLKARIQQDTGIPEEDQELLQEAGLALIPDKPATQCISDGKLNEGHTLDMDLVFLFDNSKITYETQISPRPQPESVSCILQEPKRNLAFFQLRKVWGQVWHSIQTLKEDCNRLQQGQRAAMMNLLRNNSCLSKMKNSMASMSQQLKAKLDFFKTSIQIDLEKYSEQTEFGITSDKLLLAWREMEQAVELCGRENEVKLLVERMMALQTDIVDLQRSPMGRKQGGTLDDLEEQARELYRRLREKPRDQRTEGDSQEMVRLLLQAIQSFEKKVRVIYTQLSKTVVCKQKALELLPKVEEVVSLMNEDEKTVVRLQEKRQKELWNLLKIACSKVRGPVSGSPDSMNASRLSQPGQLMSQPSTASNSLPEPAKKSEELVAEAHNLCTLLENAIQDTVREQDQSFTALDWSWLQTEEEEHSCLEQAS

NF-κB = conditions: human leukemia cell lines and patient samples; Shishodia et al. (2006); cited from earlier work
[1] = monkeys, equivalent dosages orally in gelatin capsules; Form B versus Form A
[2] = test system: Stage IV pancreatic cancer; conditions: compared with the combination; cited from earlier work
[3] = mice; cited from earlier work
[4] = cited from earlier work

Structure (SMILES): CC1(C)CC[C@]2(C(=O)O)CC[C@]3(C)[C@H](C(=O)C=C4[C@@]5(C)C=C(C#N)C(=O)C(C)(C)[C@@H]5CC[C@]43C)[C@@H]2C1 [CDDO, 2-cyano-3,12-dioxooleana-1,9(11)-dien-28-oic acid]
- Expression of heme oxygenase-1 (HO-1) enzyme (heme oxygenase-1 (HO-1)): rapidly increase the expression

Structure (SMILES): CC1(C)CC[C@]2(C(=O)n3ccnc3)CC[C@]3(C)[C@H](C(=O)C=C4[C@@]5(C)C=C(C#N)C(=O)C(C)(C)[C@@H]5CC[C@]43C)[C@@H]2C1 [CDDO-Im]
- Inhibition of IKKb activity (IKKb): direct inhibitors
- Expression of heme oxygenase-1 (HO-1) enzyme (heme oxygenase-1 (HO-1)): rapidly increase the expression

Structure (SMILES): COC(=O)[C@]12CCC(C)(C)CC1C1C(=O)C=C3[C@@]4(C)C=C(C#N)C(=O)C(C)(C)[C@@H]4CC[C@@]3(C)[C@]1(C)CC2 (stereo partly shown) [CDDO-Me]
- Inhibition of constitutive and inducible NF-κB (NF-κB): potently inhibits
- Inhibition of IKKb activity (IKKb): direct inhibitors

Structure (SMILES): COC(=O)[C@]12CCC(C)(C)C[C@H]1[C@H]1C(=O)C=C3[C@@]4(C)C=C(C#N)C(=O)C(C)(C)[C@@H]4CC[C@@]3(C)[C@]1(C)CC2 [Form B]
- Bioavailability [1]: surprisingly better than that of Form A

Structure (SMILES): Nc1ccn([C@@H]2O[C@H](CO)[C@@H](O)C2(F)F)c(=O)n1 [gemcitabine, 2′,2′-difluoro-2′-deoxycytidine]
- Clinical activity of gemcitabine alone (historical) [2]: has not produced this level of clinical activity
- Maximum tolerated dose [3]: 300 mg/kg/dose
- Maximum administered dose ([4]; humans): 1000 mg/m^2
- Dose reported to be tolerated in patients ([4]; prolonged infusion for up to 12 hours): 10 mg/m^2/min
